Data from patent US20110217293A1, “Uses of morelloflavone” (priority 2008, published 2011).
“Also recorded” adds a separate entry of the source.

Columns and labels:
Ldlr−/−Apobec1−/− mice = test: Immunohistochemical and TUNEL analysis of atherosclerotic lesions; type: in vivo, mouse; conditions: aortic root, 8 months diet
Text: For the cross sectional analyses of atherosclerosis, the roots of the ascending aortae were embedded in OCT compound (Tissue-Tek®, Sakura-Fineteck U.S.A., Torrance, Calif.). The 5-μm cryostat sections were obtained at the levels of aortic valve leaflets and subjected to hematoxylin and eosin (H&E), TUNEL, and other immunohistochemical staining as described below. In both methods of atherosclerosis quantification, the images of aortae were digitally captured and stored in the TIFF format, using the ScanScope slide scanning system (Nikon, Melville, N.Y.). The quantification of the atherosclerotic area was performed by Image J software (NIH, Bethesda, Md.) and expressed at lesion areas (μm^2).
In order to identify within the intima vascular smooth muscle cells, macrophages, and proliferating cells, the tissue was stained using anti-smooth muscle cell alpha-actin (SMA) (catalog no. ab5694, Abcam, Cambridge, Mass.), anti-macrophage surface glycoproteins (F4/80, catalog no. ab6640, Abcam), and anti-Ki67 (Clone TEC-3, DAKO, Carpinteria, Calif.) antibodies, respectively, as described previously. Values are expressed as means±SD. Comparisons of parameters between two groups were made with the two-tailed Student's t test. When appropriate, ANOVA was performed to compare multiple groups. A value of P<0.05 was considered statistically significant.

[1] = Body weight in carotid artery injury study; type: in vivo, mouse; conditions: apoE−/− mice
Procedure: The carotid artery injury assay was performed as described by Kuhel (16). Male apoE−/− mice were obtained from Jackson Laboratory (Bar Harbor, Me.) and maintained on a 12 hour light/dark cycle. All animal experimentation protocols were performed under institutional guidelines of animal welfare, in accordance with NIH guidelines. Mice were fed either normal rodent chow diet (5001, LabDiet) (n=10) or normal chow diet containing 0.15% morelloflavone (w/w) (n=9). This diet corresponded to 200 mg/kg morelloflavone if a 30 gm mouse consumes 4 grams of chow. Mice were placed on these diets for 7 days before they underwent carotid artery denudation by the insertion of an epoxy resin (Epon) probe as described (16).

RhoA = test: GTPase activation assay, RhoA; type: cell-based, mouse; conditions: 0.1 mM; low concentrations 0.1 & 1 mM
Procedure: To assess the phosphorlyation status of ERK, […] of whole cell lysates was loaded onto SDS-PAGE, and Western blot analysis was done using anti-p-ERK (Santa Cruz; E-4; sc-7383) and anti-ERK (Santa Cruz; K-23; sc-94) antibodies. To detect active RhoA, Rac1 and Cdc42, generated GST-tagged RhoA binding domain of Rhotekin protein (GST-Rhotekin-RBD) and GST-tagged p21-binding domain of p21-activated kinase 1 (PAK1)(GST-PAK1-PBD) were first generated. Briefly, E. coli BL21 cells transformed with pGEX4T-PAK1-PBD or pGEX4T-Rh,otekin-RBD were grown at 37° C. and expression of recombinant protein was induced by addition of 0.1 mM IPTG for 3 hours. Cells were resuspended in lysis buffer (50 mM Tris-HCl, pH 8.0, 10% glycerol, 20% sucrose, 2 mM DTT, 1 mg/ml leupeptin, 1 mg/ml pepstatin, and 1 mg/ml aprotinin), sonicated, and centrifuged at 4° C. for 30 min at 45,000 g. The supernatant was incubated with glutathione sepharose 4B beads (GE-Amersham, Piscataway, N.J.) for 1 hour at 4° C., and then washed 3 times in lysis buffer. Using these GST-proteins, GTPase activation assays were performed as described. […]

[2] = system: vascular smooth muscle cells; test: Lamellipodium formation assay; type: cell-based, mouse; design: effect on morphology of vascular smooth muscle cells: dose or concentration left out as unconfirmed; conditions: for lamellipodium index: 5% serum, 3 hrs
Procedure: Mouse vascular smooth muscle cells, isolated as described (13), were maintained in 231 media (Cascade Biologics, Portland, Oreg.) supplemented with SMGS (Cascade Biologics) in a humidified incubator at 37° C. with 5% CO2. Cells from passages 4-9 were used in all experiments. All experiments were performed in subconfluent, unsynchronized cells growing in SMGS except for the lamellipodium formation assay.
The lamellipodium formation assay was performed as described (14). In brief, mouse vascular smooth muscle cells (serum-starved for 24 hrs) were seeded onto fibronectin-coated wells of chamber slides (CultureSlide, BD BioCoat Fibronectin) and incubated with various concentrations of morelloflavone (0, 1, and 10 mM) in the presence or absence of serum for 3 hrs at 37° C. Then, cells were fixed with 4% paraformaldehyde, permeabilized with 0.1% Triton X-100, stained with Alexa Fluor 594-Phallidin (Invitrogen-Molecular Probes) and DRAQ5 (Biostatus, Ltd, Leicestershire, UK), and viewed with the use of a Leica DM6000 confocal microscope. Lamellipodium indices were calculated as the number of lamellipodia divided by the total number of cells counted.

## O=C1c2c(O)cc(O)cc2O[C@H](c2ccc(O)cc2)[C@H]1c1c(O)cc(O)c2c(=O)cc(-c3ccc(O)c(O)c3)oc12 [morelloflavone, 5,7, 4′, 5″, 7″, 3″, 4″-heptahydroxy-[3,8″]-flavonylflavanone]
Ldlr−/−Apobec1−/− mice
  Ki-67-positive cells in atherosclerotic lesions: 0.0011±0.0003 cells/μm^2
  Ki-67 index in atherosclerotic lesions: 1.6±0.5%
  SMA-positive cells (SMA index) in atherosclerotic lesions: 0.0026±0.0007 cells/μm^2
  SMA-positive cells (VSMCs) in atherosclerotic lesions: 15.4±3.5 cells/section
  TUNEL index in atherosclerotic lesions: 0.4±0.2%
  TUNEL-positive cells in atherosclerotic lesions: 0.00025±0.00008 cells/μm^2
  macrophages (F4/80-positive cells) in the lesions: 32.3±8.0 cells/section
  macrophages (F4/80 index) in the lesions: 0.0042±0.0018 cells/μm^2
  reduction of SMA-positive cells per section vs control: 43%
  reduction of SMA-positive cells per μm^2 vs control: 32%
[1]; at the time of sacrifice
  Body weight: 23.3 ± 1.5 g
[1]; before injury
  Body weight: 24.0 ± 2.0 g
RhoA
  activation of RhoA: inhibited; also recorded: blocks the activation
[2]; 1 mM morelloflavone
  lamellipodium index: 0.05±0.001
[2]; 10 mM morelloflavone
  lamellipodium index: 0.033±0.006
[2]; absence of serum, any concentration (0, 1)
  effect on morphology of vascular smooth muscle cells: did not change the morphology
[2]; serum stimulated, 1-10 mM
  effect on lamellipodium indices / formation: significantly decreased lamellipodium indices in a dose-dependent fashion; also recorded: failed to increase lamellipodium indices; also recorded: blocks
